Peptide text beside a SMILES is read from it. * marks the point of attachment. Cbz = O=C(OCc1ccccc1)*
Tested on: intracellular Gag in SOCS1-siRNA HeLa cells
Experiment: Immunoblotting of intracellular Gag-GFP in SOCS1-siRNA HeLa cells treated with NH4Cl or MG132
Format: cell-based, human
Description: (F) HeLa cells were transfected with Cag-GFP and cotransfected with either control-siRNA or SOCS1-siRNA I. After 36 hours, the cells were treated with a mock solution, 10 mM NH4Cl or 10 μM MG132 for another 16 hours. Cell were then harvested and subjected to immunoblotting analysis with anti-GCF or anti-β-actin antibodies.

Compound | level of intracellular Gag (10 μM MG132, 16 hours) | level of intracellular Gag (10 mM NH4Cl, 16 hours)
CC(C)C[C@@H](C=O)NC(=O)[C@H](CC(C)C)NC(=O)[C@H](CC(C)C)NC(=O)OCc1ccccc1 [MG132] (Cbz-Leu-Leu-Leu-aldehyde) | not | 
Cl.N [NH4Cl] |  | significantly increased

Source: patent US7838238B2, “Method for screening anti-HIV Drugs and a diagnostic method of AIDS” (CellFree Sciences Co., Ltd., priority 2008, dated 2010)
